Assay results from patent publication US8680272B2, “3-arylethynyl substituted quinazolinone compounds” (Council of Scientific & Industrial Research, priority 2011, dated 2014).

Experiments:
SNB-19 = assay: Anticancer activity, SRB assay, CNS cell line SNB-19; type: cell-based, human; conditions: Homo sapiens; CNS SNB-19; 48 h continuous drug exposure; —^b means GI50 values not attained at the concentrations used; read-out: Growth Inhibition GI50
Description: (§1) Some of biological activity studies were carried out at the National Cancer Institute (NCI), Maryland, USA.
(§2) The compounds were evaluated for anticancer activity against sixty human cancer cells derived from nine cancer types (leukemia cell line, non-small-cell lung cell line, colon cell line, CNS cell line, melanoma cell line, ovarian cell line, prostate cell line, renal cell line and breast cancer cell line) as shown in Table 1. For each compound, dose response curves for each cell line were measured at a minimum of five concentrations at 10 fold dilutions. A protocol of 48 h continuous drug exposure was used and a sulforhodamine B (SRB) protein assay was used to estimate cell viability or growth.

SR = assay: Anticancer activity, SRB assay, leukemia cell line SR; type: cell-based; conditions: Homo sapiens, 48 h continuous drug exposure, read-out: Growth Inhibition GI50
Description: as §1, §2

[1] = system: seven colon cancer cell line (COLO 205, HCC-2998, HCT-116, HCT-15, HT29, KM12 and SW-620); assay: Anticancer activity, SRB assay, colon panel; type: cell-based, human
Description: as §1, §2

MDA-MB-231/ATCC = assay: Anticancer activity, SRB assay, breast cell line MDA-MB-231/ATCC; type: cell-based; conditions: Homo sapiens; Breast MDA-MB-231/ATCC; 48 h continuous drug exposure; read-out: Growth Inhibition GI50
Description: as §1, §2

[2] = system: six breast cancer cell line (MCF-7, MDA-MB-231/ATCC, HS 578T, TD-47D, MDA-MB-468 and BT-549); assay: Anticancer activity, SRB assay, breast panel; type: cell-based, human
Description: as §1, §2

CCRF-CEM = assay: Anticancer activity, SRB assay, leukemia cell line CCRF-CEM; type: cell-based, human; conditions: Homo sapiens, 48 h continuous drug exposure, —^b means GI50 values not attained at the concentrations used, read-out: Growth Inhibition GI50
Description: as §1, §2

SF-295 = assay: Anticancer activity, SRB assay, CNS cell line SF-295; type: cell-based, human; conditions: Homo sapiens; CNS SF-295; 48 h continuous drug exposure; —^b means GI50 values not attained at the concentrations used; read-out: Growth Inhibition GI50
Description: as §1, §2

HT29 = assay: Anticancer activity, SRB assay, colon cell line HT29; type: cell-based; conditions: Homo sapiens, HT-29, 48 h continuous drug exposure, read-out: Growth Inhibition GI50
Description: as §1, §2

UACC-62 = assay: Anticancer activity, SRB assay, melanoma cell line UACC-62; type: cell-based; conditions: Homo sapiens; Melanoma UACC-62; 48 h continuous drug exposure; read-out: Growth Inhibition GI50
Description: as §1, §2

A549/ATCC = assay: Anticancer activity, SRB assay, non-small lung cell line A549/ATCC; type: cell-based, human; conditions: Homo sapiens, 48 h continuous drug exposure, —^b means GI50 values not attained at the concentrations used, read-out: Growth Inhibition GI50
Description: as §1, §2

HOP-62 = assay: Anticancer activity, SRB assay, non-small lung cell line HOP-62; type: cell-based, human; conditions: Homo sapiens; Non-small lung HOP-62; 48 h continuous drug exposure; —^b means GI50 values not attained at the concentrations used; read-out: Growth Inhibition GI50
Description: as §1, §2

SW-620 = assay: Anticancer activity, SRB assay, colon cell line SW-620; type: cell-based; conditions: Homo sapiens; Colon SW-620; 48 h continuous drug exposure; read-out: Growth Inhibition GI50
Description: as §1, §2

786-0 = assay: Anticancer activity, SRB assay, renal cell line 786-0; type: cell-based, human; conditions: Homo sapiens; Renal 786-0; 48 h continuous drug exposure; —^b means GI50 values not attained at the concentrations used; read-out: Growth Inhibition GI50
Description: as §1, §2

ACHN = assay: Anticancer activity, SRB assay, renal cell line ACHN; type: cell-based, human; conditions: Homo sapiens, 48 h continuous drug exposure, —^b means GI50 values not attained at the concentrations used, read-out: Growth Inhibition GI50
Description: as §1, §2

[3] = Anticancer activity, SRB assay, melanoma panel; type: cell-based, human; conditions: Homo sapiens; nine melanoma cancer cell line; exposure period of at least 48 h; read-out: GI50 (range over the panel)
Description: as §1, §2

[4] = system: nine melanoma cancer cell line (LOX IMVI, MALME-3M, M14, MDA-MB-435, SK-MEL-2, SK-MEL-28, SK-MEL-5, UACC-257 and UACC-62); assay: Anticancer activity, SRB assay, melanoma panel; type: cell-based, human; conditions: Melanoma
Description: as §1, §2

NCI-H460 = assay: Anticancer activity, SRB assay, non-small lung cell line NCI-H460; type: cell-based; conditions: Homo sapiens, Non-small lung NCl-H460, 48 h continuous drug exposure, read-out: Growth Inhibition GI50
Description: as §1, §2

SF-268 = assay: Anticancer activity, SRB assay, CNS cell line SF-268; type: cell-based, human; conditions: Homo sapiens; CNS SF-268; 48 h continuous drug exposure; —^b means GI50 values not attained at the concentrations used; read-out: Growth Inhibition GI50
Description: as §1, §2

MDA-MB-435 = assay: Anticancer activity, SRB assay, melanoma cell line MDA-MB-435; type: cell-based, human; conditions: Homo sapiens; Melanoma MDA-MB-435; 48 h continuous drug exposure; —^b means GI50 values not attained at the concentrations used; read-out: Growth Inhibition GI50
Description: as §1, §2

UO-31 = assay: Anticancer activity, SRB assay, renal cell line UO-31; type: cell-based, human; conditions: Homo sapiens; Renal UO-31; 48 h continuous drug exposure; —^b means GI50 values not attained at the concentrations used; read-out: Growth Inhibition GI50
Description: as §1, §2

SNB-75 = assay: Anticancer activity, SRB assay, CNS cell line SNB-75; type: cell-based, human; conditions: Homo sapiens; CNS SNB-75; 48 h continuous drug exposure; —^b means GI50 values not attained at the concentrations used; read-out: Growth Inhibition GI50
Description: as §1, §2

MDA-MB-468 = assay: Anticancer activity, SRB assay, breast cell line MDA-MB-468; type: cell-based; conditions: Homo sapiens; Breast MDA-MB-468; 48 h continuous drug exposure; read-out: Growth Inhibition GI50
Description: as §1, §2

RPMI-8226 = assay: Anticancer activity, SRB assay, leukemia cell line RPMI-8226; type: cell-based; conditions: Homo sapiens; Leukemia RPMI-8226; 48 h continuous drug exposure; read-out: Growth Inhibition GI50
Description: as §1, §2

MALME-3M = assay: Anticancer activity, SRB assay, melanoma cell line MALME-3M; type: cell-based; conditions: Homo sapiens; Melanoma MALME-3M; 48 h continuous drug exposure; read-out: Growth Inhibition GI50
Description: as §1, §2

SK-MEL-28 = assay: Anticancer activity, SRB assay, melanoma cell line SK-MEL-28; type: cell-based, human; conditions: Homo sapiens; Melanoma SK-MEL-28; 48 h continuous drug exposure; —^b means GI50 values not attained at the concentrations used; read-out: Growth Inhibition GI50
Description: as §1, §2

K-562 = assay: Anticancer activity, SRB assay, leukemia cell line K-562; type: cell-based; conditions: Homo sapiens, K562; Leukemia K-562; 48 h continuous drug exposure; read-out: Growth Inhibition GI50
Description: as §1, §2

OVCAR-4 = assay: Anticancer activity, SRB assay, ovarian cell line OVCAR-4; type: cell-based, human; conditions: Homo sapiens; Ovarian OVCAR-4; 48 h continuous drug exposure; —^b means GI50 values not attained at the concentrations used; read-out: Growth Inhibition GI50
Description: as §1, §2

For Cc1cc(C#Cc2ccccc2)ccc1-n1c(/C=C/c2ccc(O)cc2)nc2ccccc2c1=O [Compound 4b, (E)-2-(4-Hydroxystyryl)-3-(2-methyl-4-(phenylethynyl)phenyl)quinazolin-4(3H)-one], which GI50 (SNB-19) is on record?
Its GI50 is 6.91 µM.

What about the GI50 (SR) of the same compound?
The GI50 was 2.45 µM.

What about the “mean graph midpoint values (MG_MID) of log10 TGI (Log10TGI50)” value (“mean graph midpoint values … (Log10TGI50)” for short) ([1]; Colon, log value of concentration of the compound resulting in total inhibition of net cell growth) of the same compound?
Its value is −4.83.

And the “mean graph midpoint values (MG_MID) of Log10LC50” value ([1]; Colon, log value of the concentration of compounds leading to 50% net cell death)?
The value was −4.15.

What about the “mean graph midpoint values (MG_MID) of Log10GI50” value ([1]; Colon, log values of concentration in mol/L causing 50% inhibition of net cell growth) of the same compound?
The value was −5.55 mol/L.

What about the GI50 ([1]; Homo sapiens, seven colon cancer cell line, exposure period of at least 48 h, read-out: GI50 (range over the panel)) of the same compound?
Its GI50 is 1.99 to 4.08 µM.

And the GI50 (MDA-MB-231/ATCC)?
Its GI50 is 3.89 µM.

What about the “mean graph midpoint values … (Log10TGI50)” value ([2]; Breast, log value of concentration of the compound resulting in total inhibition of net cell growth) of the same compound?
The value was −4.58.

And the “mean graph midpoint values (MG_MID) of Log10LC50” value ([2]; Breast, log value of the concentration of compounds leading to 50% net cell death)?
Its value is >−4.00.

And the “mean graph midpoint values (MG_MID) of Log10GI50” value ([2]; Breast, log values of concentration in mol/L causing 50% inhibition of net cell growth)?
Its value is −5.54 mol/L.

And the GI50 ([2]; Homo sapiens, six breast cancer cell line, exposure period of at least 48 h, read-out: GI50 (range over the panel))?
The GI50 was 2.02 to 3.89 µM.

And the GI50 (CCRF-CEM)?
Its GI50 is 3.26 µM.

And the GI50 (SF-295)?
Its GI50 is 2.85 µM.

What about the GI50 (HT29) of the same compound?
The GI50 was 3.33 µM.

What about the GI50 (UACC-62) of the same compound?
Its GI50 is 3.48 µM.

What about the GI50 (A549/ATCC) of the same compound?
The GI50 was 3.14 µM.

And the GI50 (HOP-62)?
The GI50 was 13.1 µM.

And the GI50 (SW-620)?
Its GI50 is 4.08 µM.

What about the GI50 (786-0) of the same compound?
Its GI50 is 3.65 µM.

What about the GI50 (ACHN) of the same compound?
The GI50 was 2.46 µM.

And the GI50 [3]?
Its GI50 is 1.77 to 4.54 µM.

What about the “mean graph midpoint values … (Log10TGI50)” value ([4]; log value of concentration of the compound resulting in total inhibition of net cell growth) of the same compound?
The value was −4.79.

And the “mean graph midpoint values (MG_MID) of Log10LC50” value ([4]; log value of the concentration of compounds leading to 50% net cell death)?
Its value is −4.16.

And the “mean graph midpoint values (MG_MID) of Log10GI50” value ([4]; log values of concentration in mol/L causing 50% inhibition of net cell growth)?
The value was −5.54 mol/L.

And the GI50 (NCI-H460)?
The GI50 was 2.22 µM.

And the GI50 (SF-268)?
Its GI50 is 4.56 µM.

And the GI50 (MDA-MB-435)?
The GI50 was 2.82 µM.

And the GI50 (UO-31)?
Its GI50 is 2.06 µM.

What about the GI50 (SNB-75) of the same compound?
The GI50 was 3.66 µM.

What about the GI50 (MDA-MB-468) of the same compound?
Its GI50 is 3.78 µM.

And the GI50 (RPMI-8226)?
The GI50 was 2.33 µM.

And the GI50 (MALME-3M)?
The GI50 was 2.12 µM.

And the GI50 (SK-MEL-28)?
The GI50 was 4.54 µM.

And the GI50 (K-562)?
The GI50 was 2 µM.

And the GI50 (OVCAR-4)?
The GI50 was 3.17 µM.
